Data set [1] relates to Green Rice Leafhopper (Nephotettix cincticeps). The data set can be described thus: Test on Controlling Effects Against Green Rice Leafhopper (rice seedling dip). It is filed as in vivo. The text has this:
The root was wrapped with absorbent cotton wet with water, and the rice seedling was put in a test tube.

Data set [2] relates to Common Cutworm (Spodoptera litura). The experiment in a line: whole plant or invertebrate. As for the experimental part:
They were diluted to a predetermined concentration with water containing a spreader (Shin-Rinoh 0.040) and subjected to the test by themselves or as a mixed liquid.
A leaf segment of cabbage was dipped for about 10 seconds in an insecticidal solution and dried in air. A wet filter paper was laid in a petri dish having a diameter of 9 cm, and the dried leaf segment of cabbage was placed thereon. 10 Second-instar larvae of common cutworm were released therein and after putting a cover, left in a constant temperature chamber at 25° C. with lightening. On the 5th or 6th day after release, dead larvae were counted, and the mortality was calculated by the following equation. Here, the insects that were moribund were counted as dead insects. Mortality (%)={(number of dead insects)/(number of surviving insects+number of dead insects)}×100
Further, the theoretical mortality (%) can be calculated from the colby's formula.

In data set [3] the test system is Green Peach Aphid (Myzus persicae). The data set can be described thus: Test on Controlling Effects Against Green Peach Aphid (radish leaf dip). The format is in vivo. The settings on record: third day after the dipping. As for the experimental part: Japanese radish leaf (cut into about 2 cm×3 cm) was put in a test tube in which water was put, and Larvae of green peach aphid were released on the leaf. […] On the third day after the dipping, dead larvae were counted, and the mortality was calculated from the following equation. Aphids that dropped from leaf or were moribund were included in the number of dead. […] Mortality (%)=(number of dead insects/number of treated insects)×100

Where [4] appears, read: Spodoptera litura, in Brassica oleracea, foliar.

SMILES strings stand for the structures. “And” between values parts separate entries of the source, which are not always exact repeats. Identical values can stand only once. Like-named read-outs stand apart in the source and are kept apart here.

The values that follow come from US10039284B2, “Pesticidal compositions” (priority 2006, dated 2018).

As a reminder, the mortality is the share of the test organisms that died.

For `CC(NC(=O)c1cc(Cl)cc(Br)c1NC(=O)c1cc(Br)nn1-c1ncccc1Cl)C1CC1` (stereo not drawn) [Compound No. 1, N-[2-bromo-4-chloro-6-[[α-methyl-(cyclopropylmethyl)amino]carbonyl]-phenyl]-3-bromo-1-(3-chloro-2-pyridyl)-1H-pyrazole-5-carboxamide], the “Mortality (%)” value in data set [1] (Compound No. 1 alone 0.4 ppm, 5th or 6th day) is 30% and 50%; in data set [2] (Compound No. 1 alone 0.02 ppm, 5th or 6th day), 100% and 90% and 70% and 60% and 50%; in data set [3] (Compound No. 1 alone 0.8 ppm) it was 8% and 11%; in data set [3] (Compound No. 1 alone 1.5 ppm), 46% and 28%.

Regarding `C[C@@H](NC(=O)C(C#N)C(C)(C)C)c1ccc(Cl)cc1Cl` (stereo partly drawn) [Diclocymet, diclocymet], in data set [1] (Nephotettix cincticeps), the mortality at 0.4 ppm stood at 0% and the mortality at 0.8 ppm was 0%. For the same compound, in data set [2] (setting [4]), the mortality at 18.8 ppm is 0%, the mortality at 37.5 ppm came to 0% and the mortality at 75 ppm amounted to 0%.

Regarding `O=C1OCc2c(Cl)c(Cl)c(Cl)c(Cl)c21` [Fthalide, fthalide], the mortality at 50 ppm in data set [1] (Nephotettix cincticeps, other pesticide alone 50 ppm, 5th or 6th day) is 0%; in data set [2] (setting [4]), 0%. Also, the mortality at 100 ppm in data set [1] (Nephotettix cincticeps, other pesticide alone 100 ppm, 5th or 6th day) came to 0%; in data set [2] (setting [4]) it was 0%. In addition, the mortality at 200 ppm turned out to be 0% in data set [1] (Nephotettix cincticeps, other pesticide alone 200 ppm, 5th or 6th day, read-out: Mortality (%)) and 0% in data set [2] (setting [4]).

Turning to `C=CCOC1=NS(=O)(=O)c2ccccc21` [Probenazole, probenazole], the mortality at 200 ppm in data set [1] (Nephotettix cincticeps) was found to be 0%; in data set [3] (Myzus persicae, foliar, other pesticide alone 200 ppm), 13%. This compound also gave a mortality at 100 ppm in data set [3] (Myzus persicae, foliar, other pesticide alone 100 ppm) of 0%.
